ChEMBL document CHEMBL3232812, “In-vitro anti-proliferative and anti-oxidant activity of galangin, fisetin and quercetin: role of localization and intermolecular interaction in model membrane” (Eur J Med Chem, 2014)
≈ marks a conversion by molar mass, not a printed value. Calls of active or inactive are those of the source. No cut-off for these calls is given here.

Key:
[1] = Binding affinity DPPC multilamellar vesicles assessed as main transition temperature at 1:10 compound/lipid ratio after 2 hrs by differential scanning calorimetry method (reference value: 41.98 degC)
[2] = Binding affinity to 0.5 mg/ml of DPPC multilamellar vesicles at 100 uM after 2 hrs by centrifugation method; assay type: physicochemical
[3] = Binding affinity DPPC multilamellar vesicles after 2 hrs by centrifugation method; assay type: physicochemical
[4] = Binding affinity DPPC multilamellar vesicles assessed as pre-transition temperature at 1:20 compound/lipid ratio after 2 hrs by differential scanning calorimetry method (reference value: 34.10 degC)
[5] = Binding affinity DPPC multilamellar vesicles assessed as pre-transition temperature at 1:10 compound/lipid ratio after 2 hrs by differential scanning calorimetry method (reference value: 34.10 degC)
[6] = Binding affinity DPPC multilamellar vesicles assessed as main transition temperature at 1:20 compound/lipid ratio after 2 hrs by differential scanning calorimetry method (reference value: 41.98 degC)
[7] = Binding affinity DPPC multilamellar vesicles assessed as main transition temperature at 1:5 compound/lipid ratio after 2 hrs by differential scanning calorimetry method (reference value: 41.98 degC)
[8] = Binding affinity DPPC multilamellar vesicles assessed as main transition temperature at 1:2 compound/lipid ratio after 2 hrs by differential scanning calorimetry method (reference value: 41.98 degC)
[9] = Binding affinity DPPC multilamellar vesicles assessed as chemical shift at 1:5 compound/lipid ratio at 323 K by nuclear magnetic resonance analysis
[10] = Binding affinity DPPC multilamellar vesicles assessed as chemical shift at 1:5 compound/lipid ratio at 303 K by nuclear magnetic resonance analysis
[11] = Binding affinity DPPC multilamellar vesicles assessed as chemical shift at 1:5 compound/lipid ratio at 333 K by nuclear magnetic resonance analysis
[12] = test system: Radical scavenging activity; assay: Antioxidant activity assessed as DPPH radical scavenging activity after 30 mins; assay type: functional
[13] = test system: K562; assay: Antiproliferative activity against human K562 cells assessed as cell growth at 10^-4 ug/ml after 48 hrs by SRB assay relative to control; assay type: functional; details: K562, 48 h, read-out: Activity
[14] = test system: HepG2; assay: Antiproliferative activity against human HepG2 cells assessed as cell growth at 10^-4 ug/ml after 48 hrs by SRB assay relative to control; assay type: functional; details: HepG2, 48 h, read-out: Activity
[15] = test system: MCF7; assay: Antiproliferative activity against human MCF7 cells assessed as cell growth at 10^-4 ug/ml after 48 hrs by SRB assay relative to control; assay type: functional; details: MCF7, 48 h, read-out: Activity

Structure (SMILES) | T [1] | Activity [2] | Kapp [3] | T [4] | T [5] | T [6] | T [7] | T [8] | Activity [9] | Activity [10] | Activity [11] | IC50 [12] | growth at 0.0001 µg/mL [13] | growth at 0.0001 µg/mL [14] | growth at 0.0001 µg/mL [15]
O=c1c(O)c(-c2ccc(O)c(O)c2)oc2cc(O)ccc12 [FISETIN] | 39.3 °C | 60% | 10438 M⁻¹ | 30.1 °C | 26.2 °C | 40.8 °C | 38.3 °C | 39.2 °C | Active | Active | Active | 9.26 µg/mL (≈ 32.4 µM) | 33.7% | 62.8% | 47.1%
O=c1c(O)c(-c2ccccc2)oc2cc(O)cc(O)c12 [GALANGIN] | 37.9 °C | 60% | 16701 M⁻¹ |  |  | 38.7 °C | 37.6 °C | 36.5 °C | Active | Active | Active | 11.4 µg/mL (≈ 42.2 µM) | 74.8% | 23.7% | 68.2%
O=c1c(O)c(-c2ccc(O)c(O)c2)oc2cc(O)cc(O)c12 [QUERCETIN] | 39.7 °C | 60% | 10710 M⁻¹ |  |  | 40.2 °C | 39.6 °C | 41 °C | Active | Active | Active | 9.14 µg/mL (≈ 30.2 µM) | 12.4% | -5.4% | 8.3%
